The target in assay [1] is T1, human glucocorticoid receptor-α [GRX] isoform (Homo sapiens, UniProt P04150).
T1 construct: host or cells: insect SF21 cells (baculovirus)
T1 sequence (P04150 1-777): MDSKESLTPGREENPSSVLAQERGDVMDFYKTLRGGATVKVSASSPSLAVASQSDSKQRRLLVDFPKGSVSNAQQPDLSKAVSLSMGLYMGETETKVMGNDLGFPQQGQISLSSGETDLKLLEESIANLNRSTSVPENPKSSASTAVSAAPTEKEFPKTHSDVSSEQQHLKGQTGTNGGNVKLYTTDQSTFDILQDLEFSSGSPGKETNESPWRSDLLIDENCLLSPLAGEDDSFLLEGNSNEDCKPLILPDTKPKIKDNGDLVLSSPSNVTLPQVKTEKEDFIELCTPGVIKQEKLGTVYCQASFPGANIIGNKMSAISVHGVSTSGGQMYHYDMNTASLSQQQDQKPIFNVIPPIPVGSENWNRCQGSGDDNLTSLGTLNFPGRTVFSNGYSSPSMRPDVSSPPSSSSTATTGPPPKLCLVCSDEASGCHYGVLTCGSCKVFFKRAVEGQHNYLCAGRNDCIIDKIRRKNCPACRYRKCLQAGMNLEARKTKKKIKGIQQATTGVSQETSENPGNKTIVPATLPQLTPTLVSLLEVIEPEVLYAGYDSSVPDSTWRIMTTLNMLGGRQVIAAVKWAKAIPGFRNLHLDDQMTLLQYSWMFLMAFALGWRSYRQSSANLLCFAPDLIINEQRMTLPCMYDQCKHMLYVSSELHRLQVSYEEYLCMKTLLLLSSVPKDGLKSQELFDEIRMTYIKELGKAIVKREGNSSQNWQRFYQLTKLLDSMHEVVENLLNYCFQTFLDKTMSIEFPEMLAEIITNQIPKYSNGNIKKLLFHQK
Put plainly: Radioligand binding with human glucocorticoid receptor cytosol ([3H]-dexamethasone competition).

Assay [2] deals with T2, human progesterone receptor-A [PRA] isoform (Homo sapiens, UniProt P06401).
T2 construct: host or cells: insect SF21 cells (baculovirus)
T2 sequence (P06401 1-769 isoform P06401-2): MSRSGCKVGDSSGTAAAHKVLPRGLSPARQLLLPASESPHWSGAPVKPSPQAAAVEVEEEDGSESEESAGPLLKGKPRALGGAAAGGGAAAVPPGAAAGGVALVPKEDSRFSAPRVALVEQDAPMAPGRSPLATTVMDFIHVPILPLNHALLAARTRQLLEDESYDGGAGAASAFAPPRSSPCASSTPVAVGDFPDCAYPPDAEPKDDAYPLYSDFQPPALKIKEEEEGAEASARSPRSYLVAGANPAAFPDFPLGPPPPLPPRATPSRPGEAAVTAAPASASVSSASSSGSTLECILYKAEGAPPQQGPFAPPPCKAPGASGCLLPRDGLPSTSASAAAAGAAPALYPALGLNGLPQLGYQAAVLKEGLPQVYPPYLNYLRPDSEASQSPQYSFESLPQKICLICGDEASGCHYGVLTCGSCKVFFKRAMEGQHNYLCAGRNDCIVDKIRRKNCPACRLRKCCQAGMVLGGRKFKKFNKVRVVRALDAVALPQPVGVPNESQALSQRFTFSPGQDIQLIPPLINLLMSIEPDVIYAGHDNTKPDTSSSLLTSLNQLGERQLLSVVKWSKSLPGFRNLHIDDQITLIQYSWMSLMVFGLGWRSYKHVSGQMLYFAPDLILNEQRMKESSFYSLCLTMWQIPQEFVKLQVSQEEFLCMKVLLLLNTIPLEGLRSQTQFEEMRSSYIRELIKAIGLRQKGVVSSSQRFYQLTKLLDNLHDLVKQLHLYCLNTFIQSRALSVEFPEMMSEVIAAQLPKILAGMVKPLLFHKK
Put plainly: Radioligand binding with human progesterone receptor cytosol ([3H]-progesterone competition).

[3] abbreviates: GRX cytosol expressed in insect SF21 cells, [3H]-Dex ~0.9 nM, 4° C. overnight, Ki by Cheng-Prusoff, KL ~[…], read-out: Ki (nM) GR.
Where [4] appears, read: PRA cytosol expressed in insect SF21 cells, [3H]Prog ~0.8 nM, 4° C. overnight, Ki by Cheng-Prusoff, KL ~4.5 nM, read-out: Ki (nM) PR.

The results in this text go back to patent US6506766B1 (Abbott Laboratories, priority 1998, dated 2003).

Where two headings read alike, the source gives them in different places.

For `COc1cccc2c1-c1ccc3c(c1C(c1cccc(OCCN4CCCCC4)c1)O2)C(C)=CC(C)(C)N3` (centres unmarked) [Example 89, 2,5-Dihydro-10-methoxy-2,2,4-trimethyl-5-[3-[2-(1-piperidinyl)ethoxy]pheny]-1H-[1]benzopyrano[3,4-f]quinoline], the Ki was 275 nM in assay [1] (setting [3]) and not below 10000 nM in assay [2] (setting [4]).
The corresponding values for `CC1=CC(C)(C)Nc2ccc3c(c21)C(c1ccccc1)Oc1cccc(OC(F)F)c1-3` (centres unmarked) [Example 345, 10-(Difluoromethoxy)-2,5-dihydro-5-phenyl-2,2,4-trimethyl-1H-[1]benzopyrano[3,4-f]quinoline] are 8.7 nM and 3000 nM.
For `COc1cccc2c1-c1ccc3c(c1C(c1ccc(C)c(F)c1)O2)C(C)=CC(C)(C)N3` (centres unmarked) [Example 51], the inhibition constant Ki was determined as 18 nM in assay [1] (setting [3]) and 7330 nM in assay [2] (setting [4]).
Regarding `CC(=O)Oc1cccc2c1-c1ccc3c(c1C(c1ccccc1)O2)C(C)=CC(C)(C)N3` (centres unmarked) [Example 10, 2,5-Dihydro-2,2,4-trimethyl-5-phenyl-1H-[1]benzopyrano[3,4-f]quinoline-10-ol Acetate (Ester)], the results for the Ki in assay [1] (setting [3]) and in assay [2] (setting [4]) were 179 nM and 10900 nM, respectively.
The corresponding values for `COc1cccc2c1-c1ccc3c(c1C(C1CCC=C(CO)C1)O2)C(C)=CC(C)(C)N3` (centres unmarked) [Example 150, 2,5-Dihydro-10-methoxy-5-(3-hydroxymethyl-3-cyclohexenyl)-2,2,4-trimethyl-1H-[1]benzopyrano[3,4-f]quinoline] are 106 nM and not below 10000 nM.
Taken in the same sequence, the figures for `C=CCC1Oc2cccc(C=C)c2-c2ccc3c(c21)C(C)=CC(C)(C)N3` (centres unmarked) [Example 5, 10-Ethenyl-2,5-dihydro-2,2,4-trimethyl-5-(2-propenyl)-1H-[1]benzopyrano[3,4-f]quinoline] were 357 nM and not below 10000 nM.
Take `COc1cccc2c1-c1ccc3c(c1C([C@@H]1C=C(CN(C)C)CCC1)O2)C(C)=CC(C)(C)N3` (stereo in doubt) [Example 169, rel (5R, 3′S) 2,5-Dihydro-10-methoxy-5-(1-(N,N dimethylamino)methyl-3-cyclohexenyl)-2,2,4-trimethyl-1H-[1]benzopyrano[3,4-f]quinoline]: the figures for the Ki in assay [1] (setting [3]) and in assay [2] (setting [4]) were 300 nM and not below 10000 nM, respectively.
In the case of `C=C(C)CC1Oc2cccc(OC)c2-c2ccc3c(c21)C(C)=CC(C)(C)N3` (centres unmarked) [Example 171, 2,5-Dihydro-10-methoxy-5-(2-methyl-3-propenyl)-2,2,4-trimethyl-1H-[1]benzopyrano[3,4-f]quinoline], the inhibition constant Ki in assay [1] (setting [3]) is 3.3 nM; in assay [2] (setting [4]), 7430 nM.
For `COCC1=CC(C2Oc3cccc(OC)c3-c3ccc4c(c32)C(C)=CC(C)(C)N4)CCC1` (centres unmarked) [Example 164], the values for the inhibition constant (Ki) in assay [1] (setting [3]) and in assay [2] (setting [4]) were 36 nM and not below 10000 nM, respectively.
Consider `COc1c(O)ccc2c1-c1ccc3c(c1C(c1cc(F)cc(F)c1)O2)C(C)=CC(C)(C)N3` (centres unmarked) [Example 249, 2,5-Dihydro-9-hydroxy-10-methoxy-2,2,4-trimethyl-5-(3,5-difluorophenyl)-1H-[1]benzopyrano[3,4-f]quinoline], for which the Ki stood at 0.8 nM in assay [1] (setting [3]) and 488 nM in assay [2] (setting [4]).
Turning to `COc1cccc2c1-c1ccc3c(c1C(c1ccccc1)O2)C(C)=CC(C)(C)N3` (single isomer, unassigned) [Example 26, (±)-2,5-Dihydro-10-methoxy-2,2,4-trimethyl-5-phenyl-1H-[1]benzopyrano[3,4-f]quinoline], the inhibition constant Ki in assay [1] (setting [3]) turned out to be 2.1 nM; in assay [2] (setting [4]) it was 13400 nM.
As for `COc1cccc2c1-c1ccc3c(c1C(c1ccccc1)O2)C(C)=NC(C)(C)N3` (centres unmarked) [Example 358, 2,5-Dihydro-10-methoxy-2,2,4-trimethyl-5-phenyl-1H-[1]benzopyrano[3,4-f]quinazoline], the Ki in assay [1] (setting [3]) worked out at 4.2 nM; in assay [2] (setting [4]), 8960 nM.
Taken in the same sequence, the figures for `C=CCC1Oc2cccc(NC)c2-c2ccc3c(c21)C(C)=CC(C)(C)N3` (centres unmarked) [Example 3, 2,5-Dihydro-2,2,4,N-tetramethyl-5-(2-propenyl)-1H-[1]benzopyrano[3,4-f]quinolin-10-amine] were 4.8 nM and 2650 nM.
The corresponding values for `CC1=CC(C)(C)Nc2ccc3c(c21)C(Cc1ccccc1)Oc1ccc(O)c(Cl)c1-3` (racemic) [Example 429, (+/−)2,5-Dihydro-9-hydroxy-10-chloro-2,2,4-trimethyl-5-benzyl-1H-[1]benzopyrano[3,4-f]quinoline] are 4.1 nM and 29.1 nM.
In the case of `COc1cccc2c1-c1ccc3c(c1C(CC=C(F)F)O2)C(C)=CC(C)(C)N3` (centres unmarked) [Example 193, 2,5-Dihydro-10-methoxy-5-(1,1-difluoro-1-propen-3-yl)-2,2,4-trimethyl-1H-[1]benzopyrano[3,4-f]quinoline], the figures for the inhibition constant (Ki) in assay [1] (Ki (nM) GR) and in assay [2] (setting [4]) were 2 nM and 2180 nM, respectively.
`C=CCC1Oc2cccc(-c3ccco3)c2-c2ccc3c(c21)C(C)=CC(C)(C)N3` (centres unmarked) [Example 326, 2,5-Dihydro-10-(2-furanyl)-5-(3-propenyl)-2,2,4-trimethyl-1H-[1]benzopyrano[3,4-f]quinoline]: the inhibition constant Ki is 228 nM in assay [1] (setting [3]) and not below 10000 nM in assay [2] (setting [4]).
For the compound `CC1=CC(C)(C)Nc2ccc3c(c21)C(=Cc1ccccn1)Oc1ccc(O)c(Cl)c1-3` [Example 413, 9-Hydroxy-10-chloro-5-([2-pyridyl]methylene)-2,2,4-trimethyl-1H-2,5-dihydro-[1]benzopyrano[3,4-f]quinoline], the Ki came to 0.22 nM in assay [1] (setting [3]) and 60.8 nM in assay [2] (setting [4]).
The corresponding values for `C=CCC1Oc2c(C=C)ccc(OC)c2-c2ccc3c(c21)C(C)=CC(C)(C)N3` (centres unmarked) [Example 304, 10-Methoxy-7-(2-ethenyl)-5-(3-propenyl)-2,2,4-trimethyl-1H-2,5-dihydro-[1]benzopyrano[3,4-f]quinoline] are 34.5 nM and 681 nM.
For the compound `COCOc1cccc(C2Oc3cccc(OC)c3-c3ccc4c(c32)C(C)=CC(C)(C)N4)c1` (centres unmarked) [Example 99], the inhibition constant Ki in assay [1] (setting [3]) is 3.6 nM; in assay [2] (setting [4]), not below 10000 nM.
On to `COc1c(O)ccc2c1-c1ccc3c(c1C(c1ccccc1OC(=O)N(C)C)O2)C(C)=CC(C)(C)N3` (centres unmarked) [Example 402], for which the Ki amounted to 3.3 nM in assay [1] (Ki (nM) GR) and 10100 nM in assay [2] (Ki (nM) PR).
On to `CC/C=C\CC1Oc2ccc(O)c(OC)c2-c2ccc3c(c21)C(C)=CC(C)(C)N3` (centres unmarked) [Example 394], for which the Ki in assay [1] (setting [3]) amounted to 0.89 nM; in assay [2] (setting [4]) it was 109 nM.
For the compound `COc1cccc2c1-c1ccc3c(c1C(c1ccc(C)c(C)c1)O2)C(C)=CC(C)(C)N3` (centres unmarked) [Example 29, 5-(3,4-Dimethylphenyl)-2,5-dihydro-10-methoxy-2,2,4-trimethy-1H-[1]benzopyrano[3,4-f]quinoline], the Ki in assay [1] (setting [3]) turned out to be 7.7 nM; in assay [2] (setting [4]), 7760 nM.
The corresponding values for `COc1c(Br)cc(Br)c2c1-c1ccc3c(c1C(C1C=CCCC1)O2)C(C)=CC(C)(C)N3` (centres unmarked) [Example 302, 7,9-Dibromo-5-[cyclohexen-3-yl]-10-methoxy-2,2,4-trimethyl-2,5-dihydro-1H-[1]benzopyrano[3,4-f]quinoline] are 5.9 nM and 99 nM.
Taken in the same sequence, the figures for `COc1cccc2c1-c1ccc3c(c1C(c1cc(F)cc(F)c1)O2)C(C)=CC(C)(C)N3` (centres unmarked) [Example 34, 5-(3,5-Difluorophenyl)-2,5-dihydro-10-methoxy-2,2,4-trimethyl-1H-[1]benzopyrano[3,4-f]quinoline] were 4 nM and 4710 nM.
The corresponding values for `CCCCC1Oc2ccc(O)c(Cl)c2-c2ccc3c(c21)C(C)=CC(C)(C)N3` (centres unmarked) [Example 407, 2,5-Dihydro-9-hydroxy-10-chloro-2,2,4-trimethyl-5-butyl-1H-[1]benzopyrano[3,4-f]quinoline] are 1.8 nM and 16.4 nM.
